Data as given in paper PMC10820070, “Hydroxylated Tetramethoxyflavone Affects Intestinal Cell Permeability and Inhibits Cytochrome P450 Enzymes” (Molecules, 2024).
Where “and” joins values, the source holds several entries; their conditions need not be identical. Identical values can stand only once. Marks after values point to notes of the source that are not given here.

Legend:
[1] = biological target: CYP2C9 (Homo sapiens, UniProt P11712); experiment: CYP inhibition assay (P450 Baculosomes/Vivid substrate, fluorescence), 10-dose IC50
Chain of CYP2C9 (P11712 whole entry): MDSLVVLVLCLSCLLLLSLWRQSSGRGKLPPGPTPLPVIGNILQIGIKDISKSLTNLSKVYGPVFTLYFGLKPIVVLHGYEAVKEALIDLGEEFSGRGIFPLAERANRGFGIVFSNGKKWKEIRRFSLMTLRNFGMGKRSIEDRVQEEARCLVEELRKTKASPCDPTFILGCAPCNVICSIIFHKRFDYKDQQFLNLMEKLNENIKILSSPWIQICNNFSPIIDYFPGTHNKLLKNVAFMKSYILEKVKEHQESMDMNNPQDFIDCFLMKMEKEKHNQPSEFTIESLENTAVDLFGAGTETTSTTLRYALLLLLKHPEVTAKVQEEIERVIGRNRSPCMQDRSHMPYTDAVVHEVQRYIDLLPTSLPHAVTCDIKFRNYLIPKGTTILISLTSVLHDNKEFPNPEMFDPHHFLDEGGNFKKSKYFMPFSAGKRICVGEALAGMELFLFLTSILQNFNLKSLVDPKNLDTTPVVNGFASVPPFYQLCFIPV

[2] = biological target: T1, CYP2D6 (Homo sapiens, UniProt P10635); experiment: as above; format: biochemical; conditions: mean ± S.D.; ND: Not Detected
T1 construct: purchased Invitrogen Corp. (Madison, WI, USA); host or cells: insect cells (baculovirus)
T1 sequence (P10635 whole entry): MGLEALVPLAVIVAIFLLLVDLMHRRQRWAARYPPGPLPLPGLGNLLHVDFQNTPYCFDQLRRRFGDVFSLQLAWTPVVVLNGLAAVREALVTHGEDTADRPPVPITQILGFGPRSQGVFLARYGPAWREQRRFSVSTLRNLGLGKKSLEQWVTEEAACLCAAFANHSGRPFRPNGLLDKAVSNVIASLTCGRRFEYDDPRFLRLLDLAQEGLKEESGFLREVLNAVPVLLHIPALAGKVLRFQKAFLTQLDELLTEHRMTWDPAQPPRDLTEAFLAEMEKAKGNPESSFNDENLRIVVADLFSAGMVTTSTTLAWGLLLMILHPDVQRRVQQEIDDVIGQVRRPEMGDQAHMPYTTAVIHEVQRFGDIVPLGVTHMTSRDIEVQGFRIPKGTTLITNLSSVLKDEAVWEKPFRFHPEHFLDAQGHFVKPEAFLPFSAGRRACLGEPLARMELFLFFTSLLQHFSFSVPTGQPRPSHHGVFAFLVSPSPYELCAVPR

[3] = biological target: T2, CYP1A2 (Homo sapiens, UniProt P05177); experiment: as above
T2 sequence (P05177 2-516 limits assumed): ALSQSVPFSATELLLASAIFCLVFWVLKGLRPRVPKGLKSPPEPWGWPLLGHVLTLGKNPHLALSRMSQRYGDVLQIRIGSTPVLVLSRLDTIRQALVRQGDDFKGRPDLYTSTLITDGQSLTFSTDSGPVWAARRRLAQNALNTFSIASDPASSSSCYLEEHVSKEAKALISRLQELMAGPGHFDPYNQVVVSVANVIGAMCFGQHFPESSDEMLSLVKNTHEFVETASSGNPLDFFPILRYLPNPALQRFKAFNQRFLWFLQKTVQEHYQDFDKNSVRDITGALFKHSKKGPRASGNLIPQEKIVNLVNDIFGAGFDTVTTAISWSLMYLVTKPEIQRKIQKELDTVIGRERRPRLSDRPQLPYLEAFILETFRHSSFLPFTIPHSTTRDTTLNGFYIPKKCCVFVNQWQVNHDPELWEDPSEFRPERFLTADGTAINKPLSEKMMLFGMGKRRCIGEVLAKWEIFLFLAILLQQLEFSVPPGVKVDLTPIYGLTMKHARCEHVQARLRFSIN

[4] = biological target: CYP3A4 (Homo sapiens, UniProt P08684); experiment: as above
Chain of CYP3A4 (P08684 2-503 limits assumed): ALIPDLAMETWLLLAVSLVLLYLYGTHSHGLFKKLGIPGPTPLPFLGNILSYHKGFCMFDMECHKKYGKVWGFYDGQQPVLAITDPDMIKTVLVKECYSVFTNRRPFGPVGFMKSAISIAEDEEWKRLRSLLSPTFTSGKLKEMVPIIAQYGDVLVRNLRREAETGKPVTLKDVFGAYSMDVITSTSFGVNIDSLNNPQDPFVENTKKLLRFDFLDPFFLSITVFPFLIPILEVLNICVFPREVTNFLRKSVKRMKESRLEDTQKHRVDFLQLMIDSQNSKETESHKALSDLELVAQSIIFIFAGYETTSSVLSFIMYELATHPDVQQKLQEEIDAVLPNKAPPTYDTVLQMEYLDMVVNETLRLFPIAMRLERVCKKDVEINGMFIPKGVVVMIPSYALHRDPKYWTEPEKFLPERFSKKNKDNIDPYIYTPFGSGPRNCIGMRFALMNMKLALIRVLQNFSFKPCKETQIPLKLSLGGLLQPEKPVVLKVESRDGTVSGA

[5] = biological target: T3, CYP2C19 (Homo sapiens, UniProt P33261); experiment: as above; format: biochemical; conditions: mean ± S.D.; ND: Not Detected
T3 construct: purchased Invitrogen Corp. (Madison, WI, USA); host or cells: insect cells (baculovirus)
T3 sequence (P33261 whole entry): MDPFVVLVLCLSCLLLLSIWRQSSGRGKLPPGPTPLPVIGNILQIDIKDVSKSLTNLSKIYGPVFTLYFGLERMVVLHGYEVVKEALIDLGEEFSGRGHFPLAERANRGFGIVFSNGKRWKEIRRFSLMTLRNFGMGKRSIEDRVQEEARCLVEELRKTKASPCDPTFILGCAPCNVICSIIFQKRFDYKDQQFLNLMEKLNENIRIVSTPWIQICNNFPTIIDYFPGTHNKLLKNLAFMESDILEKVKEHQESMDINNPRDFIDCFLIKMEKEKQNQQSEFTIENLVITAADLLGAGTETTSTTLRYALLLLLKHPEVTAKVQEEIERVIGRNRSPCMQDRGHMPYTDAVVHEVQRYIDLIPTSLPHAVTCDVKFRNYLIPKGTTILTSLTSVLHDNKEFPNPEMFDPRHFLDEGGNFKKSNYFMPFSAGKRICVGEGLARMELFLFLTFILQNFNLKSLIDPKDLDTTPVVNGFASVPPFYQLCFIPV

[6] = system: Caco-2 cell monolayer; experiment: Transport of TMFs across Caco-2 cell monolayer, apical to basolateral; format: in vitro ADME, human; conditions: 300 μg/mL TMF loaded on apical side, mean ± S.D
Description: (§1) Caco-2 cells were cultured in Dulbecco’s modified Eagle’s medium (DMEM; GIBCO, Carlsbad, CA, USA) supplemented with 10% fetal bovine serum (GIBCO), 1% nonessential amino acid solution, and antibiotics (100 U/mL penicillin and 100 µg/mL streptomycin from GIBCO) with a minor modification according to Lu. Cells were grown in an incubator with 5% CO2 and 95% humidity at 37 °C, with medium replaced every 2–3 days. The tests were carried out using cells from passages 25–35. Transwell inserts with a polycarbonate membrane (diameter 1.2 cm, pore size 0.4 μm; Corning Costar Co., Corning, NY, USA) were used in 12-well plates. Caco-2 cells were planted at 5 × 10^5 cells/cm^2 on the membrane inserts, and 0.5 and 1.5 mL of culture media were placed on the apical and basolateral sides, respectively. The medium was changed three times a week, and the Caco-2 cells used in the studies had been cultured in the Transwells for approximately 21 days. The integrity of the cell layer was assessed using Millicell ERS equipment by measuring transepithelial electrical resistance (TEER) values (Millipore Co., Bedford, MA, USA). Monolayers with TEER values greater than 400 Ωcm^2 were used for transport and absorption studies.
(§2) Transport experiments were conducted using modified methodologies from the literature. Before adding the test solution, the apical and basolateral sides of the Coco-2 cell monolayer grown in Transwell inserts were washed three times with Hank’s balanced salt solution (GIBCO). The apical-to-basolateral permeability was measured by adding 0.5 mL of the test solution containing 300 μg/mL TMFs and 1.5 mL of HBSS to the apical and basolateral sides, respectively, and incubating at 37 °C for 0.5, 1, 2, and 4 h. The concentration of TMF utilized was determined using the Caco-2 cell viability test findings. TMF was dissolved and diluted with HBSS before the experiment began. The apical and basolateral solutions were collected after incubation for 0.5, 1, 2, and 4 h, and the concentration of TMF was determined using LC-MS. The apparent permeability coefficient (Papp in cm/s) was calculated over a four-hour duration using Equation (1):Papp = (V/AC0) × (dC/dt)(1) where V is the volume of solution on the basolateral side (1.5 mL); A is the membrane surface area (1.12 cm^2); C0 is the initial concentration on the apical side; and dC/dt is the change in concentration in the basolateral side over time.
(§3) The transport efficiency (%) was calculated using Equation (2):Transport efficiency (%) = (Cbs)/(Cas) × 100 (%)(2) where Cbs is the concentration of TMF transported in the basolateral side; and Cas is the initial concentration of TMF added to the apical side.

[7] = as above; format: in vitro ADME, human; conditions: human, Caco-2, calculated over four hours, read-out: apparent permeability coefficient (Papp)
Description: as §1, §2, §3

[8] = system: cytochrome P450s (CYP) 3A4; parameters: method as in PMID 22056445; conditions: in vitro; read-out: IC50 against CYP3A4; cited from earlier work
[9] = system: cytochrome P450s (CYP) 1A2; parameters: method as in PMID 22056445; conditions: in vitro; read-out: IC50 against CYP1A2; cited from earlier work
[10] = system: CYP1A2, CYP2C9, CYP2C19 (range over the three); experiment: CYP inhibition assay, summary over the enzyme panel; format: biochemical; conditions: human, probe Vivid substrates; range over CYP1A2, 2C9 and 2C19; dose-dependent

Row | IC50 [1] | IC50 [2] | IC50 [3] | IC50 [4] | IC50 [5] | Transport Efficiency (%) ([6]; 1 h) | Transport Efficiency (%) ([6]; 2 h) | Transport Efficiency (%) ([6]; 4 h) | Papp at 4 h, 300 μg/mL [7] | IC50 at 25 min [10] | Compound | IC50 [8] | IC50 [9]
1 | 18.3 ± 8.93 µM | 2.28 ± 0.46 µM | 15.5 ± 1.95 µM | 0.15 ± 0.07 µM | 14.8 ± 3.15 µM | 37.82 ± 0.07 ^c % | 41.96 ± 1.14 ^b % | 46% and 46.29 ± 2.16 ^a % | 19.5 ×10⁻⁶ cm/s | – | COc1ccc2c(=O)c(O)c(-c3cc(OC)c(OC)cc3OC)oc2c1 [3H7-TMF, 3-hydroxy-2′,4′,5′,7-tetramethoxyflavone] | – | –
2 | – | – | – | – | – | – | – | – | – | – | COc1cc(-c2cc(=O)c3c(O)c(OC)c(OC)c(OC)c3o2)ccc1O [8-methoxycirsilineol, 4′,5-dihydroxy-3′,6,7,8-tetramethoxy flavone] | 1.71 µM | 2.41 µM
3 | 62.5 ± 2.12 µM | – | 35.6 ± 12.3 µM | 3.56 ± 1.23 µM | – | 22.48 ± 3.90 ^c % | 33.03 ± 0.46 ^b % | 34.00 ± 0.01% and 34.00 ± 1.81 ^ab % | 14.3 ×10⁻⁶ cm/s | – | COc1cc(OC)c2c(=O)cc(-c3ccc(OC)c(OC)c3)oc2c1 [57-TMF, 3′,4′,5,7-tetramethoxyflavone] | – | –
4 | 1.49 ± 0.16 µM | – | 0.79 ± 0.12 µM | 108 ± 6.31 µM | 1.85 ± 0.14 µM | 30.49 ± 0.05 ^c** % | 33.98 ± 0.75 ^b % | 37.58 ± 0.11% and 37.58 ± 2.11 ^a % | 8.83 ×10⁻⁶ cm/s | 0.79 to 1.85 µM | COc1ccc(-c2cc(=O)c3ccc(OC)c(OC)c3o2)cc1OC [78-TMF, 3′,4′,7,8-tetramethoxyflavone] | – | –

Row | Compound | IC50 [1] | IC50 [2] | IC50 [3] | IC50 [4] | IC50 [5] | Transport Efficiency (%) ([6]; 1 h) | Transport Efficiency (%) ([6]; 2 h) | Transport Efficiency (%) ([6]; 4 h) | Papp at 4 h, 300 μg/mL [7] | IC50 at 25 min [10] | IC50 [8] | IC50 [9]
5 | COc1ccc2oc(-c3cc(OC)c(OC)cc3OC)c(O)c(=O)c2c1 [3H6-TMF, 3-hydroxy-2′,4′,5′,6-tetramethoxyflavone] | 8.03 ± 3.75 µM | 95.5 ± 3.21 µM | 20.6 ± 0.98 µM | 0.44 ± 0.12 µM | 10.2 ± 2.47 µM | 25.42 ± 1.92 ^c % | 33.27 ± 2.59 ^b % | 39.43 ± 2.50% and 39% and 39.43 ± 3.50 ^a % | 17.4 ×10⁻⁶ cm/s | – | – | –
